Results from article PMC9944328 (Nature Communications, 2023).
“And” between values parts separate entries of the source, which are not always exact repeats. Equal entries are not always repeated.

Target: SSTR2 (Homo sapiens, UniProt P30874)
Experiment: SSTRs Gi-mediated cAMP inhibition, GloSensor, HEK293, 5 μM forskolin, 15 min room temperature (SSTR2 wild-type);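 as to Bottom (best-fit value): normalized to the maximal wild-type response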;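 as to Bottom (best-fit): normalized to the maximal wild-type response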;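 as to Span (best-fit value), cAMP inhibition: normalized to the maximal wild-type response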;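 as to Span (best-fit value): normalized to the maximal wild-type response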;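 as to Span (best-fit): normalized to the maximal wild-type response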;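 as to Span: normalized to the maximal wild-type response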;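 as to Top (best-fit): normalized to the maximal wild-type response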
Format: cell-based
Set-up: Best-fit Top, cAMP inhibition / Span, cAMP inhibition / Best-fit Bottom / Best-fit Top / Best-fit Span / Bottom / Span (best-fit value), cAMP inhibition / Top (best-fit value), cAMP inhibition: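 normalized to the maximal wild-type response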
Conditions: for Bottom (best-fit value) / LogEC50 (best-fit value) / Span (best-fit value) / Top (best-fit value): Y205A panel
Method: The levels of the intracellular 3′, 5′-cyclic AMP (cAMP) were measured by the GloSensor cAMP assay (Promega) as described in the previous studies[28],[41] which has been widely used. The human full-length SSTRs and mutants were cloned into the pcDNA3.1+ vector with a HA signal sequence followed by a Flag tag at the N-terminus. HEK293 cells (ATCC, CRL-1573) were seeded into 6-well microplates at a density of 1.0 × 10^6 cells/well and cultured for 24 h at 37 °C with 5% CO2. Cells were then co-transfected with SSTR wild-type or mutants and GloSensor plasmids. After 24 h of transfection, the cells were dissociated with TrypLE™ Express Enzyme (1X) (Thermo Fisher Scientific) and collected by centrifugation at 500 × g for 5 min. Then the collected cells were suspended in Hank’s balanced salt solution [HBSS (Thermo Fisher Scientific)] supplemented with […] (YEASEN), and then the suspension cells were seeded into 96-well plates with 90 μl/well. After incubating at room temperature for 40 min, 5 μM forskolin and ligands diluted in HBSS were added to each well and the plates were incubated at room temperature for 15 min. […] were measured using the Synergy H1 microplate reader (BioTek) and the data presented are means of at least three independent experiments.

[1] = WT-2 (run 2 of each mutant's batch)
[2] = WT-3 (run 3 of each mutant's batch)
[3] = cAMP inhibition best-fit, D122A set, WT-1
[4] = cAMP inhibition best-fit, D122A set, WT-2
[5] = cAMP inhibition best-fit, D122A set, WT-3
[6] = cAMP inhibition best-fit, F127A set, WT-1
[7] = cAMP inhibition best-fit, F127A set, WT-2
[8] = cAMP inhibition best-fit, F127A set, WT-3
[9] = cAMP inhibition best-fit, I130A set, WT-1
[10] = cAMP inhibition best-fit, I130A set, WT-2
[11] = cAMP inhibition best-fit, I130A set, WT-3
[12] = cAMP inhibition best-fit, Q102A set, WT-1
[13] = cAMP inhibition best-fit, Q102A set, WT-2
[14] = cAMP inhibition best-fit, Q102A set, WT-3
[15] = cAMP inhibition best-fit, Q126A set, WT-1
[16] = cAMP inhibition best-fit, Q126A set, WT-2
[17] = cAMP inhibition best-fit, Q126A set, WT-3
[18] = cAMP inhibition best-fit, V103A set, WT-1
[19] = cAMP inhibition best-fit, V103A set, WT-2
[20] = cAMP inhibition best-fit, V103A set, WT-3

SSTR2, sequence (P30874 whole entry): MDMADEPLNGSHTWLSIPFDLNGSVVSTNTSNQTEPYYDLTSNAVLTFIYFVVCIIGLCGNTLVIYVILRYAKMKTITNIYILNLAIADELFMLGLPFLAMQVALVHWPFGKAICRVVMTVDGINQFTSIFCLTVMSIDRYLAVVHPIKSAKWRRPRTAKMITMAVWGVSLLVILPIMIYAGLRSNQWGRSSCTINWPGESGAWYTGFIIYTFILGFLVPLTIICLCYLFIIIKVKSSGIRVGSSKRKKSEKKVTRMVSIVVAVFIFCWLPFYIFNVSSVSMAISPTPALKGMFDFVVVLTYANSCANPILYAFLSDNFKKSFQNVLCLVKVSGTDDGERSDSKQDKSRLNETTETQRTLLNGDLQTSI

With N#Cc1cccc(-c2ccc3ncc(-c4cc(F)cc(F)c4)c(N4CCC(N)CC4)c3c2)c1O [paltusotine] the “Span (best-fit)” value (WT-1, run paired with T194H) was 111, the “Top (best-fit)” value (WT-1, run paired with T194H) was 106.2 and the “Bottom (best-fit)” value (WT-1, run paired with V103N) was 16.51. For the same compound, the LogEC50 (WT-1, run paired with V103N) was -8.678, the “Span (best-fit)” value (WT-1, run paired with V103N) was 89.51 and the “Top (best-fit)” value (WT-1, run paired with V103N) was 106. For the same compound, the LogEC50 (WT-1, run paired with Y205R) was -9.27, the “Span (best-fit)” value (WT-1, run paired with Y205R) was 108.3 and the “Top (best-fit)” value (WT-1, run paired with Y205R) was 106.3. The “Span (best-fit value), cAMP inhibition” value [1] was 111.8 and 113.8 and 107.7 and 112.3, the “Top (best-fit value), cAMP inhibition” value [1] was 108 and 108.3 and 107.8 and 112.4 and the “Bottom (best-fit)” value (WT-2, run paired with D295F) was -1.411. For the same compound, the LogEC50 (WT-2, run paired with D295F) was -9.3, the “Span (best-fit)” value (WT-2, run paired with D295F) was 105.2 and the “Top (best-fit)” value (WT-2, run paired with D295F) was 103.8. For the same compound, the “Bottom (best-fit)” value (WT-2, run paired with F294Y) was -1.411, the LogEC50 (WT-2, run paired with F294Y) was -9.3 and the “Span (best-fit)” value (WT-2, run paired with F294Y) was 105.2. The “Top (best-fit)” value (WT-2, run paired with F294Y) was 103.8, the “Bottom (best-fit)” value (WT-2, run paired with I195M) was 10.59 and the LogEC50 (WT-2, run paired with I195M) was -8.695. The “Span (best-fit)” value (WT-2, run paired with I195M) was 88.58, the “Top (best-fit)” value (WT-2, run paired with I195M) was 99.16 and the “Bottom (best-fit)” value (WT-2, run paired with T194H) was -0.3773. The LogEC50 (WT-2, run paired with T194H) was -8.796, the “Span (best-fit)” value (WT-2, run paired with T194H) was 113.8 and the “Top (best-fit)” value (WT-2, run paired with T194H) was 113.4. For the same compound, the “Bottom (best-fit)” value (WT-2, run paired with V103N) was 8.218, the LogEC50 (WT-2, run paired with V103N) was -8.87 and the “Span (best-fit)” value (WT-2, run paired with V103N) was 100.4. The “Top (best-fit)” value (WT-2, run paired with V103N) was 108.6, the LogEC50 (WT-2, run paired with Y205R) was -9.271 and the “Span (best-fit)” value (WT-2, run paired with Y205R) was 104.8. The “Top (best-fit)” value (WT-2, run paired with Y205R) was 105.4, the “Span (best-fit value), cAMP inhibition” value [2] was 106.7 and 111.8 and 113.8 and 112.4 and 113.7 and the “Top (best-fit value), cAMP inhibition” value [2] was 107.8 and 108 and 112 and 113.6. For the same compound, the “Bottom (best-fit)” value (WT-3, run paired with D295F) was 12.84, the LogEC50 (WT-3, run paired with D295F) was -8.964 and the “Span (best-fit)” value (WT-3, run paired with D295F) was 85.7. For the same compound, the “Top (best-fit)” value (WT-3, run paired with D295F) was 98.54, the “Bottom (best-fit)” value (WT-3, run paired with F294Y) was -4.818 and the LogEC50 (WT-3, run paired with F294Y) was -8.937. For the same compound, the “Span (best-fit)” value (WT-3, run paired with F294Y) was 111, the “Top (best-fit)” value (WT-3, run paired with F294Y) was 106.2 and the “Bottom (best-fit)” value (WT-3, run paired with T194H) was 8.218. The LogEC50 (WT-3, run paired with T194H) was -8.87, the “Span (best-fit)” value (WT-3, run paired with T194H) was 100.4 and the “Top (best-fit)” value (WT-3, run paired with T194H) was 108.6. The “Bottom (best-fit)” value (WT-3, run paired with V103N) was -2.506, the LogEC50 (WT-3, run paired with V103N) was -8.966 and the “Span (best-fit)” value (WT-3, run paired with V103N) was 107.7. For the same compound, the “Top (best-fit)” value (WT-3, run paired with V103N) was 105.2, the LogEC50 (WT-3, run paired with Y205R) was -8.678 and the “Span (best-fit)” value (WT-3, run paired with Y205R) was 89.51. The “Top (best-fit)” value (WT-3, run paired with Y205R) was 106, the “Bottom (best-fit value)” value (WT-1 (run 1)) was -1.411 and the “LogEC50 (best-fit value)” value (WT-1 (run 1)) was -9.3. The “Span (best-fit value)” value (WT-1 (run 1)) was 105.2, the “Top (best-fit value)” value (WT-1 (run 1)) was 103.8 and the “Bottom (best-fit value)” value (WT-2 (run 2)) was 7.891. For the same compound, the “LogEC50 (best-fit value)” value (WT-2 (run 2)) was -9.109, the “Span (best-fit value)” value (WT-2 (run 2)) was 96.39 and the “Top (best-fit value)” value (WT-2 (run 2)) was 104.3. For the same compound, the “Bottom (best-fit value)” value (WT-3 (run 3)) was 0.01788, the “LogEC50 (best-fit value)” value (WT-3 (run 3)) was -8.988 and the “Span (best-fit value)” value (WT-3 (run 3)) was 104.7. The “Top (best-fit value)” value (WT-3 (run 3)) was 104.8, the Bottom [3] was -4.038 and the LogEC50 [3] was -8.63. It also gave a Span [3] of 111.8, a Top [3] of 107.8 and a Bottom [4] of -5.769. The LogEC50 [4] was -8.575, the Span [4] was 113.8 and the Top [4] was 108. It also gave a Bottom [5] of -1.411, a LogEC50 [5] of -9.3 and a Span [5] of 105.2. For the same compound, the Top [5] was 103.8, the Bottom [6] was -0.438 and the LogEC50 [6] was -8.811. It also gave a Span [6] of 112.4, a Top [6] of 112 and a Bottom [7] of -4.818. It also gave a LogEC50 [7] of -8.937, a Span [7] of 111 and a Top [7] of 106.2. It also gave a Bottom [8] of -0.9578, a LogEC50 [8] of -9.526 and a Span [8] of 107.3. The Top [8] was 106.4, the Bottom [9] was -3.466 and the LogEC50 [9] was -9.53. For the same compound, the Span [9] was 116.5, the Top [9] was 113 and the Bottom [10] was -6.932. The LogEC50 [10] was -9.494, the Span [10] was 126.2 and the Top [10] was 119.3. For the same compound, the Bottom [11] was -3.016, the LogEC50 [11] was -8.949 and the Span [11] was 106.8. For the same compound, the Top [11] was 103.7, the LogEC50 [12] was -9.218 and the Span [12] was 100.2. It also gave a Top [12] of 103.5, a LogEC50 [13] of -8.923 and a Span [13] of 98.67. It also gave a Top [13] of 106.5, a LogEC50 [14] of -8.998 and a Span [14] of 106.7. The Top [14] was 106.1, the Bottom [15] was 7.891 and the LogEC50 [15] was -9.109. The Span [15] was 96.39, the Top [15] was 104.3 and the Bottom [16] was -2.459. It also gave a LogEC50 [16] of -8.801, a Span [16] of 121.7 and a Top [16] of 119.3. For the same compound, the Bottom [17] was 2.655, the LogEC50 [17] was -9.073 and the Span [17] was 104.2. The Top [17] was 106.8, the Bottom [18] was -2.459 and the LogEC50 [18] was -8.801. The Span [18] was 121.7, the Top [18] was 119.3 and the Bottom [19] was 3.281. It also gave a LogEC50 [19] of -9.218, a Span [19] of 100.2 and a Top [19] of 103.5. The Bottom [20] was 7.801, the LogEC50 [20] was -8.923 and the Span [20] was 98.67. For the same compound, the Top [20] was 106.5.
